Laboratory results published in patent US20250270180A1, “MEK INHIBITORS AND THERAPEUTIC USES THEREOF” (Immuneering Corporation, priority 2020, published 2025).
Values after ≈ are worked out from the molar mass of the structure shown. Where two headings read alike, the source gives them in different places.

Legend:
Plasma stability, human = type: in vitro ADME; conditions: 2 μM
CYP450 1A2 = molecular target: T1, CYP450 1A2 (Homo sapiens, UniProt P05177); experiment: CYP450 panel, 1A2; type: in vitro ADME; conditions: 10 μM; substrate phenacetin
T1 sequence (P05177 1-516): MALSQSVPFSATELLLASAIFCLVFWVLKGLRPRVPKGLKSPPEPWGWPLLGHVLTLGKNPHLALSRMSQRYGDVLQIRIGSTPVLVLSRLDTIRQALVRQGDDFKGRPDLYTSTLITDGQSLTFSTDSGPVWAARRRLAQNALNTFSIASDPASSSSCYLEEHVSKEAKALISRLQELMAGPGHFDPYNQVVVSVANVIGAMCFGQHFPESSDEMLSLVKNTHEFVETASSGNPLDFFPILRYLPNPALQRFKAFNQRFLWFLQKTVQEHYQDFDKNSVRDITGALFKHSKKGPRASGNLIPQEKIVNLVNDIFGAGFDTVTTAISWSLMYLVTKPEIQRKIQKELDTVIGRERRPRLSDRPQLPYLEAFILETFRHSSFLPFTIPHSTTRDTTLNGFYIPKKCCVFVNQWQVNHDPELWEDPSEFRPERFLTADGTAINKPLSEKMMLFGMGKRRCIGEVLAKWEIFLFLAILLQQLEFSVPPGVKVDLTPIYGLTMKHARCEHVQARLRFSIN

[1] = Kinetic solubility (PBS pH 7.4; 4 hr); type: physicochemical
Procedure: The plates were shaken for 4 h at room temperature in an Eppendorf Thermomixer. After incubation, the plates were centrifuged for 20 minutes at 4680 rpm. From the supernatant, 150 uL was transferred to a new 96 well plate and 50 uL DMSO was added to ensure continued dissolution. Samples were measured on LC-UV at injection volumes of 1 and 8 uL. Peak areas were determined and compared to peak areas obtained using calibration curves of the test compounds in DMSO.

[2] = eLogD (lipophilicity; pH 7.4); type: physicochemical
Procedure: Test compounds were dissolved in DMSO at a concentration of 10 mM and further diluted with methanol: water 1:1. Samples were analyzed using gradient HPLC with three different isocratic mobile phases of 0.25% octanol in methanol (60, 65 and 70%) and 20 mM MOPS buffer (pH 7.4) with decylamine. If needed, (for low ElogDoct compounds) the isocratic mobile phases were adjusted to e.g. 40, 45 and 50% methanol. Peaks were detected using a diode array at absorbance 220-320 nm.
Capacity factors data (k′ _=(tr−_t0)/t0) obtained at various amounts of methanol were extrapolated to 0% methanol and k′w values are determined using a linear procedure. ElogDoct (7.4) is calculated using a series of reference standards with known Log D values. Each experiment was performed in triplicate.

PAMPA (pH 7.4) = experiment: PAMPA (pH 7.4)
Procedure: Each stock solution was diluted to 50 uM in pH 7.4 Prisma HT buffer (pION) and 200 ul was added to each well of the donor plate in triplicate. The polyvinylidene fluoride (PVDF, 0.45 μm) filter membrane on the acceptor plate was coated with 5 ul gastrointestinal tract lipid formulation (GIT-0, pION) and to each well of the acceptor plate, 200 μl of acceptor sink buffer (pION) was added. The acceptor filter plate was then carefully placed on top of the donor plate to form a sandwich. The sandwich was incubated at 25° C. for 4 h without stirring. UV-vis spectra of the solutions in the blank, reference, acceptor and donor plates were measured using a microplate reader (Tecan Infinite 200PRO M Nano Plus). Permeability values were calculated using the PAMPA explorer software v. 3.8.0.2 (pION).

Colon-26 KRAS-G12D tumor = experiment: Colon-26 model (KRAS G12D CRC): efficacy & safety; type: in vivo; conditions: Colon-26 KRAS-G12D in Balb/c
Procedure: Female athymic BALB/c nude or BALB/c mice (Beijing Vital River Laboratory Animal Technology Co., Ltd.), approximately 8-10 weeks old were used in these studies. Animals were maintained in individually vented cages on a 12-h light-dark cycle. Food and water were available ad libitum. The Colon-26 tumor cells were maintained in vitro with RPMI1640 medium supplemented with 10% fetal bovine serum at 37° C. in an atmosphere of 5% CO2 in air. The cells in exponential growth phase were harvested and quantitated by cell counter before tumor inoculation. Each mouse was inoculated subcutaneously in the right flank region with Colon-26 tumor cells (5×10^5) in 0.1 mL of PBS. Randomization was started when the mean tumor size reached approximately 125 mm3. A total of 84 tumor-bearing mice were enrolled in the study and allocated into 7 treatment groups (12 mice per group). Also 12 non-tumor-bearing mice were assigned as un-treated group.
Animals were treated with either vehicle (10% DMSO/90% [20% SBE-β-CD in saline], pH 5) or vehicle containing compounds at the indicated doses by gavage (p.o.) twice daily for approximately 28-42 days (BID x 28-42 p.o.), or to ethical endpoints (BWL>20%; Median Tumor Volume (MTV)>2000 mm3; Individual TV>3000 mm3; clinical signs of unwell). Clinical signs of unwell was characterized, but not limited to the following. Severe dehydration, hypothermia, abnormal/labored respiration, lethargy, obvious pain, diarrhea, skin lesions, neurological symptoms, impaired mobility (not able to eat or drink) due to significant ascites and enlarged abdomen, astasia, continuous prone or lateral position, signs of muscular atrophy, paralytic gait, clonic convulsions, tonic convulsions, persistent bleeding from body orifice. Dosing as well as tumor and body weight measurements were conducted in a Laminar Flow Cabinet.
Animals were checked daily for morbidity and mortality. During routine monitoring, the animals were checked for any effects of tumor growth and treatments on behavior such as mobility, food and water consumption, body weight gain/loss (body weights were measured twice per week after randomization), eye/hair matting and any other abnormalities. Mortality and observed clinical signs were recorded for individual animals in detail.
Tumor volumes were measured twice per week after randomization in two dimensions using a caliper, and the volume was expressed in mm3 using the formula: V=(L×W×W)/2, where V is tumor volume, L is tumor length (the longest tumor dimension) and W is tumor width (the longest tumor dimension perpendicular to L). Results were presented as the median tumor volume, expressed in mm3+/−interquartile range, of each group. Tumor Growth Inhibition; TGI %=[1−(Ti/(Ci)]×100; where Ti as the median tumor volume of the treatment group on the measurement day, Ci as the median tumor volume of control group at the measurement day.

CYP450 3A4 = CYP450 3A4 (Homo sapiens, UniProt P08684); experiment: CYP450 panel, 3A4; conditions: 10 μM; for 3A4*: substrate midazolam; for 3A4^: substrate testosterone
Sequence of CYP450 3A4 (P08684 whole entry): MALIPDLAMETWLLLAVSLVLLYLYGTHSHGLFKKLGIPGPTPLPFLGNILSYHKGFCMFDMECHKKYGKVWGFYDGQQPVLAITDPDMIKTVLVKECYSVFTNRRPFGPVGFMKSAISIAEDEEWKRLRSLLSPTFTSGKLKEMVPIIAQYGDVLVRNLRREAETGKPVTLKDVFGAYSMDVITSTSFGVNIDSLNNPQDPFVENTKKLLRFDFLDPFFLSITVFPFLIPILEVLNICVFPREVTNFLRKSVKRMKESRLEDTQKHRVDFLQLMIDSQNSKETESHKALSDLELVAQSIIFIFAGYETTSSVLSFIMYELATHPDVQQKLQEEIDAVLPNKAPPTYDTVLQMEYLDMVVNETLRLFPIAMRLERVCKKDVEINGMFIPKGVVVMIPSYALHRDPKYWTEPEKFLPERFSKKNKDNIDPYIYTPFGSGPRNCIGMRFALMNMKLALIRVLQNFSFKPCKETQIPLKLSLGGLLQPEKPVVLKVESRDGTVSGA

CYP450 2C19 = CYP450 2C19 (Homo sapiens, UniProt P33261); experiment: CYP450 panel, 2C19; conditions: 10 μM; substrate mephenytoin
Sequence of CYP450 2C19 (P33261 whole entry): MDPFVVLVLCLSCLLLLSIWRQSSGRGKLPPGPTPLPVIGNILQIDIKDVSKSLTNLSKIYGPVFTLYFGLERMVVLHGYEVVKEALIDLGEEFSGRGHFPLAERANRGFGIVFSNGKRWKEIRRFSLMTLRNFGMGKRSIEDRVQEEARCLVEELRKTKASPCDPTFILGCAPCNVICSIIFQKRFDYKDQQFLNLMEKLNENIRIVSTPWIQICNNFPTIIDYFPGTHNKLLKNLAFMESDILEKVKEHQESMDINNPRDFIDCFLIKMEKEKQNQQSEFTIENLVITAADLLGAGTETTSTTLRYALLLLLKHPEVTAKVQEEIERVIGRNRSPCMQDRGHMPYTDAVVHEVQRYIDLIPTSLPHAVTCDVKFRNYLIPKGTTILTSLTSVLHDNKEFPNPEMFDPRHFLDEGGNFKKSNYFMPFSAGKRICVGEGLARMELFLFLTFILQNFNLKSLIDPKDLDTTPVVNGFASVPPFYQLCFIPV

[3] = Microsome stability, CD-1 mouse; conditions: microsomes, 2 μM
[4] = 10 mM PBS buffer, aqueous buffer, kinetic from dmso stock

| SMILES | Human (% Reamining @2 hour) (Plasma stability, human) | 1A2* (CYP450 1A2) | solubility kinetic at 4 h [1, 4] | eLogD (lipophilicity; pH = 7.4) [2] | Papp at 4 h, 50 uM (PAMPA (pH 7.4); PAMPA) | BWL (Day 14) (Colon-26 KRAS-G12D tumor; 150 mg/kg BID po) | BWL (Day 17) (Colon-26 KRAS-G12D tumor; 150 mg/kg BID po) | TGI (Day 10) (Colon-26 KRAS-G12D tumor; 150 mg/kg BID po) | 3A4* (CYP450 3A4) | 3A4^ (CYP450 3A4) | 2C19* (CYP450 2C19) | CD-1 Mouse (% Reamining @1 hour) [3] | solubility kinetic at 4 h [1] | PAMPA (pH = 7.4; Papp 10^−6 cm/s) (PAMPA (pH 7.4)) | BWL (Day 14) (Colon-26 KRAS-G12D tumor; 50 mg/kg BID po) | BWL (Day 17) (Colon-26 KRAS-G12D tumor; 50 mg/kg BID po) | TGI (Day 10) (Colon-26 KRAS-G12D tumor; 50 mg/kg BID po) |
| --- | --- | --- | --- | --- | --- | --- | --- | --- | --- | --- | --- | --- | --- | --- | --- | --- | --- |
| CNS(=O)(=O)Nc1cccc(Cc2c(CN(C)C)c3ccc(OC(=O)N(C)C)cc3oc2=O)c1F [Compound 9] | 95.1% | 4.8 | > 80 µM | 3.0 | 37 ×10⁻⁶ cm/s | 0% | 0% | 93.9% | 16.3 | 26.8 | 8.2 | 54.3% |  |  |  |  |  |
| Cn1cnc2c(F)c(Nc3ccc(Br)cc3Cl)c(C(=O)NOCCO)cc21 [Reference 1, Selumetinib, reference compound] | 98.1% | 8.3 |  | 3.6 |  |  |  |  | 25.9 | 21.4 | 13.9 | 13.9% | 36 µM (≈ 16.5 µg/mL) | 29 10^−6 cm/s | 0% | −2% | 60.0% |
| CNS(=O)(=O)Nc1nccc(Cc2c(C)c3ccc(Oc4ncccn4)cc3oc2=O)c1F [Reference 2, reference compound] | 91.1% | 0.8 | 36 µM (≈ 17 µg/mL) | 3.6 |  |  |  |  | 16.6 | 15.7 | −0.9 | 96.0% |  | 29 10^−6 cm/s |  |  | 61.6% |
